Patent US11203591B2, “Substituted 6-azabenzimidazole compounds” (Gilead Sciences, Inc., priority 2018, dated 2021)

molecular target: human HPK1 (MAP4K1) (Homo sapiens (Human), UniProt Q92918); test: HPK1 IC50 Assay (TR-FRET peptide phosphorylation); format: biochemical; settings: 0.15 nM HPK1, 10 μM ATP, 1 μM STK S1 peptide substrate; geometric mean
Summary of the method: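 Readout: TR-FRET (665 nm/620 nm) after EDTA stop, detecting STK S1 peptide (1 μM) phosphorylation by 0.15 nM HPK1 kinase domain, ATP-pre-activated, at 10 μM ATP over 3 h, 25° C, pH 7.0. IC50s from four-parameter variable-slope fits, normalized to staurosporine and DMSO, averaged geometrically.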

Sequence of human HPK1 (MAP4K1) (Q92918 17-274): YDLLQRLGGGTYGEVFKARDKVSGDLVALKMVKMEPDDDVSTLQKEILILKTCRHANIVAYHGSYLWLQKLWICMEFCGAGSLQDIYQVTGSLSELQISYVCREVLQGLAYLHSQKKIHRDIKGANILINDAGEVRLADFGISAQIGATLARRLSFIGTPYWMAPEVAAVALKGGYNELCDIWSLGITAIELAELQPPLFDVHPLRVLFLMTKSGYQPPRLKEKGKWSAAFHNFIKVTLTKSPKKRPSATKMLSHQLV

| Structure (SMILES) | IC50 [nM] |
| --- | --- |
| Cc1cc(F)c(Nc2nc(-c3ccc4c(c3)N([C@H]3C[C@@](C)(N5CCCCC5)C3)C(=O)C4(C)C)cc3ncn(C(C)C)c23)cc1C(=O)NCC(F)F [Example 266, N-(2,2-difluoroethyl)-5-((6-(3,3-dimethyl-1-((1s,3s)-3-methyl-3-(piperidin-1-yl)cyclobutyl)-2-oxoindolin-6-yl)-3-isopropyl-3H-imidazo[4,5-c]pyridin-4-yl)amino)-4-fluoro-2-methylbenzamide] | 0.06 |
| CC(C)NC(=O)c1cc(Nc2nc(-c3cnc4c(c3)N([C@H]3C[C@@](C)(N5CCCCC5)C3)C(=O)C4(C)C)cc3ncn(C(C)C)c23)c(F)c(F)c1Cl [Example 267, 2-chloro-5-((6-(3,3-dimethyl-1-((1s,3s)-3-methyl-3-(piperidin-1-yl)cyclobutyl)-2-oxo-2,3-dihydro-1H-pyrrolo[3,2-b]pyridin-6-yl)-3-isopropyl-3H-imidazo[4,5-c]pyridin-4-yl)amino)-3,4-difluoro-N-isopropylbenzamide] | 0.1 |
| Cc1c(C(=O)NCC(F)F)cc(Nc2nc(-c3ccc4c(c3)N([C@H]3C[C@@](C)(N5CCCCC5)C3)C(=O)C4(C)C)cc3ncn(C(C)C)c23)c(F)c1F [Example 268, N-(2,2-difluoroethyl)-5-((6-(3,3-dimethyl-1-((1s,3s)-3-methyl-3-(piperidin-1-yl)cyclobutyl)-2-oxoindolin-6-yl)-3-isopropyl-3H-imidazo[4,5-c]pyridin-4-yl)amino)-3,4-difluoro-2-methylbenzamide] | 0.03 |
| Cc1c(C(=O)NCC(F)F)cc(Nc2nc(-c3cc4c(nc3F)C(C)(C)C(=O)N4[C@H]3C[C@@](C)(N4CCCCC4)C3)cc3ncn(C(C)C)c23)c(F)c1F [Example 269, N-(2,2-difluoroethyl)-3,4-difluoro-5-((6-(5-fluoro-3,3-dimethyl-1-((1s,3s)-3-methyl-3-(piperidin-1-yl)cyclobutyl)-2-oxo-2,3-dihydro-1H-pyrrolo[3,2-b]pyridin-6-yl)-3-isopropyl-3H-imidazo[4,5-c]pyridin-4-yl)amino)-2-methylbenzamide] | 0.07 |
| CCNC(=O)c1cc(Nc2nc(-c3cc4c(nc3F)C(C)(C)C(=O)N4[C@H]3C[C@@](C)(N4CCCC5(CC5)C4)C3)cc3ncn(C(C)C)c23)c(F)c(F)c1Cl [Example 270, 2-chloro-N-ethyl-3,4-difluoro-5-((6-(5-fluoro-3,3-dimethyl-1-((1s,3s)-3-methyl-3-(5-azaspiro[2.5]octan-5-yl)cyclobutyl)-2-oxo-2,3-dihydro-1H-pyrrolo[3,2-b]pyridin-6-yl)-3-isopropyl-3H-imidazo[4,5-c]pyridin-4-yl)amino)benzamide] | 0.1 |
| CCNC(=O)c1cc(Nc2nc(-c3cc4c(nc3F)C(C)(C)C(=O)N4[C@H]3C[C@@](C)(N4CCCCC4)C3)cc3ncn(C(C)C)c23)c(F)c(F)c1C [Example 271, N-ethyl-3,4-difluoro-5-((6-(5-fluoro-3,3-dimethyl-1-((1s,3s)-3-methyl-3-(piperidin-1-yl)cyclobutyl)-2-oxo-2,3-dihydro-1H-pyrrolo[3,2-b]pyridin-6-yl)-3-isopropyl-3H-imidazo[4,5-c]pyridin-4-yl)amino)-2-methylbenzamide] | 0.06 |

same assay, conditions: recombinant HPK1 kinase domain 0.15 nM, 10 μM ATP, 1 μM STK S1 peptide; geometric mean of multiple experiments

| Structure (SMILES) | IC50 [nM] |
| --- | --- |
| CC(C)n1cnc2cc(-c3cnc4c(c3)N([C@H]3C[C@@](C)(N5CCCCC5)C3)C(=O)C4(C)C)nc(Nc3cc(C(=O)NCC(F)F)c(Cl)c(F)c3F)c21 [Example 250, 2-chloro-N-(2,2-difluoroethyl)-5-((6-(3,3-dimethyl-1-((1s,3s)-3-methyl-3-(piperidin-1-yl)cyclobutyl)-2-oxo-2,3-dihydro-1H-pyrrolo[3,2-b]pyridin-6-yl)-3-isopropyl-3H-imidazo[4,5-c]pyridin-4-yl)amino)-3,4-difluorobenzamide] | 0.1 |
| CCNC(=O)c1cc(Nc2nc(-c3cnc4c(c3)N([C@H]3C[C@@](C)(N5CCC6CC6C5)C3)C(=O)C4(C)C)cc3ncn(C(C)C)c23)c(F)c(F)c1Cl (stereo partly drawn) [Example 251, 5-((6-(1-((1s,3s)-3-(3-azabicyclo[4.1.0]heptan-3-yl)-3-methylcyclobutyl)-3,3-dimethyl-2-oxo-2,3-dihydro-1H-pyrrolo[3,2-b]pyridin-6-yl)-3-isopropyl-3H-imidazo[4,5-c]pyridin-4-yl)amino)-2-chloro-N-ethyl-3,4-difluorobenzamide] | 0.04 |
| CCNC(=O)c1cc(Nc2nc(-c3cnc4c(c3)N(C3CC(C)(N5CCC6C[C@@H]6C5)C3)C(=O)C4(C)C)cc3ncn(C(C)C)c23)c(F)c(F)c1Cl (stereo partly drawn) [Example 252, 5-((6-(1-((1s,3s)-3-(3-azabicyclo[4.1.0]heptan-3-yl)-3-methylcyclobutyl)-3,3-dimethyl-2-oxo-2,3-dihydro-1H-pyrrolo[3,2-b]pyridin-6-yl)-3-isopropyl-3H-imidazo[4,5-c]pyridin-4-yl)amino)-2-chloro-N-ethyl-3,4-difluorobenzamide] | 0.05 |
| CC(C)NC(=O)c1cc(Nc2nc(-c3cnc4c(c3)N([C@H]3C[C@@](C)(N5CCC6CC6C5)C3)C(=O)C4(C)C)cc3ncn(C(C)C)c23)c(F)c(F)c1Cl (stereo partly drawn) [Example 254, 5-((6-(1-((1s,3s)-3-(3-azabicyclo[4.1.0]heptan-3-yl)-3-methylcyclobutyl)-3,3-dimethyl-2-oxo-2,3-dihydro-1H-pyrrolo[3,2-b]pyridin-6-yl)-3-isopropyl-3H-imidazo[4,5-c]pyridin-4-yl)amino)-2-chloro-3,4-difluoro-N-isopropylbenzamide] | 0.05 |
| CCNC(=O)c1cc(Nc2nc(-c3cc4c(nc3F)C(C)(C)C(=O)N4[C@H]3C[C@@](C)(N4CCC5CC5C4)C3)cc3ncn(C(C)C)c23)c(F)c(F)c1C (stereo partly drawn) [Example 255, 5-((6-(1-((1s,3s)-3-(3-azabicyclo[4.1.0]heptan-3-yl)-3-methylcyclobutyl)-5-fluoro-3,3-dimethyl-2-oxo-2,3-dihydro-1H-pyrrolo[3,2-b]pyridin-6-yl)-3-isopropyl-3H-imidazo[4,5-c]pyridin-4-yl)amino)-N-ethyl-3,4-difluoro-2-methylbenzamide] | 0.1 |
| CC(C)n1cnc2cc(-c3cnc4c(c3)N([C@H]3C[C@@](C)(N5CCC6CC6C5)C3)C(=O)C4(C)C)nc(Nc3cc(C(=O)NCC(F)F)c(Cl)c(F)c3F)c21 (stereo partly drawn) [Example 256, 5-((6-(1-((1s,3s)-3-(3-azabicyclo[4.1.0]heptan-3-yl)-3-methylcyclobutyl)-3,3-dimethyl-2-oxo-2,3-dihydro-1H-pyrrolo[3,2-b]pyridin-6-yl)-3-isopropyl-3H-imidazo[4,5-c]pyridin-4-yl)amino)-2-chloro-N-(2,2-difluoroethyl)-3,4-difluorobenzamide] | 0.05 |
| CC(C)n1cnc2cc(-c3cnc4c(c3)N(C3CC(C)(N5CCC6C[C@@H]6C5)C3)C(=O)C4(C)C)nc(Nc3cc(C(=O)NC4(CF)CC4)c(Cl)c(F)c3F)c21 (stereo partly drawn) [Example 258, 5-((6-(1-((1s,3s)-3-(3-azabicyclo[4.1.0]heptan-3-yl)-3-methylcyclobutyl)-3,3-dimethyl-2-oxo-2,3-dihydro-1H-pyrrolo[3,2-b]pyridin-6-yl)-3-isopropyl-3H-imidazo[4,5-c]pyridin-4-yl)amino)-2-chloro-3,4-difluoro-N-(1-(fluoromethyl)cyclopropyl)benzamide] | 0.09 |
| CC(C)n1cnc2cc(-c3cnc4c(c3)N(C3CC(C)(N5CCC6C[C@@H]6C5)C3)C(=O)C4(C)C)nc(Nc3cc(C(=O)NC4(C(F)F)CC4)c(Cl)c(F)c3F)c21 (stereo partly drawn) [Example 261, 5-((6-(1-((1s,3s)-3-(3-azabicyclo[4.1.0]heptan-3-yl)-3-methylcyclobutyl)-3,3-dimethyl-2-oxo-2,3-dihydro-1H-pyrrolo[3,2-b]pyridin-6-yl)-3-isopropyl-3H-imidazo[4,5-c]pyridin-4-yl)amino)-2-chloro-N-(1-(difluoromethyl)cyclopropyl)-3,4-difluorobenzamide] | 0.09 |
| CC(C)n1cnc2cc(-c3cnc4c(c3)N(C3CC(C)(N5CCC6C[C@@H]6C5)C3)C(=O)C4(C)C)nc(Nc3cc(C(=O)NC4(C(F)F)CC4)c(Cl)c(F)c3F)c21 (stereo partly drawn) [Example 262, 5-((6-(1-((1s,3s)-3-(3-azabicyclo[4.1.0]heptan-3-yl)-3-methylcyclobutyl)-3,3-dimethyl-2-oxo-2,3-dihydro-1H-pyrrolo[3,2-b]pyridin-6-yl)-3-isopropyl-3H-imidazo[4,5-c]pyridin-4-yl)amino)-2-chloro-N-(1-(difluoromethyl)cyclopropyl)-3,4-difluorobenzamide] | 0.1 |
| CC(C)n1cnc2cc(-c3cnc4c(c3)N([C@H]3C[C@@](C)(N5C[C@H]6CC[C@@H]5C6)C3)C(=O)C4(C)C)nc(Nc3cc(C(=O)NC4(C(F)F)CC4)c(Cl)c(F)c3F)c21 [Example 263, 5-((6-(1-((1S,3s)-3-((1R,4S)-2-azabicyclo[2.2.1]heptan-2-yl)-3-methylcyclobutyl)-3,3-dimethyl-2-oxo-2,3-dihydro-1H-pyrrolo[3,2-b]pyridin-6-yl)-3-isopropyl-3H-imidazo[4,5-c]pyridin-4-yl)amino)-2-chloro-N-(1-(difluoromethyl)cyclopropyl)-3,4-difluorobenzamide] | 0.05 |
| Cc1c(F)c(Nc2nc(-c3cnc4c(c3)N([C@H]3C[C@@](C)(N5CCCCC5)C3)C(=O)C4(C)C)cc3ncn(C(C)C)c23)cc(C(=O)NC2(C(F)F)CC2)c1Cl [Example 264, 2-chloro-N-(1-(difluoromethyl)cyclopropyl)-5-((6-(3,3-dimethyl-1-((1s,3s)-3-methyl-3-(piperidin-1-yl)cyclobutyl)-2-oxo-2,3-dihydro-1H-pyrrolo[3,2-b]pyridin-6-yl)-3-isopropyl-3H-imidazo[4,5-c]pyridin-4-yl)amino)-4-fluoro-3-methylbenzamide] | 0.2 |
| CC(C)n1cnc2cc(-c3cnc4c(c3)N([C@H]3C[C@@](C)(N5CCCCC5)C3)C(=O)C4(C)C)nc(Nc3cc(C(=O)NC4CC4)c(Cl)c(F)c3F)c21 [Example 265, 2-chloro-N-cyclopropyl-5-((6-(3,3-dimethyl-1-((1s,3s)-3-methyl-3-(piperidin-1-yl)cyclobutyl)-2-oxo-2,3-dihydro-1H-pyrrolo[3,2-b]pyridin-6-yl)-3-isopropyl-3H-imidazo[4,5-c]pyridin-4-yl)amino)-3,4-difluorobenzamide] | 0.06 |
